Where “and” joins values, the source holds several entries; their conditions need not be identical. Identical values can stand only once. Like-named read-outs stand apart in the source and are kept apart here.
Columns and labels:
[1] = system: toxicologically relevant rat genes (rat CT array)
Sprague Dawley rats = system: Sprague Dawley rats
Outline: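 Toxicity calls (necrosis present or absent at 72 h) and histopathology scores were correlated with tissue gene expression from Crl:CD Sprague Dawley rats. Animals, usually 3 treated with compound by i.p. route and 3 given vehicle, were killed at 6, 24 or 72 h and tissues frozen immediately in liquid nitrogen.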

[2] = 24 h, treatment/control, dose 2, listed as CHEX

C[C@@H]1C[C@@H]([C@H](O)CC2CC(=O)NC(=O)C2)C(=O)[C@@H](C)C1 [cycloheximide]
Aflatoxin B1 aldehyde reductase expression ([1]; 24 h): 0.3081 and 0.5569 | 3-hydroxyisobutyrate dehydrogenase expression [1, 2]: 0.7822 and 0.6854 | 14-3-3 zeta expression [1, 2]: 1.308 and 1.217 | 17-beta hydroxysteroid dehydrogenase, type 2 expression [1, 2]: 0.8086 and 0.8289 | 60S ribosomal protein L6 expression [1, 2]: 4.046 and 3.164 | ATPase inhibitor (rat mitochondrial IF1 protein) expression [1, 2]: 1.104 | Alpha 1 - inhibitor III expression [1, 2]: 0.1985 and 0.3033 | Alpha-2-macroglobulin expression [1, 2]: 8.537 and 10.8864 | Bax (alpha) expression [1, 2]: 3.909 and 3.079 | Beta-actin expression [1, 2]: 1.582 | Calpactin I heavy chain expression [1, 2]: 1.21 and 1.278 | Carbamyl phosphate synthetase I expression [1, 2]: 2.339 and 1.425 | Carbonic anhydrase III expression [1, 2]: 0.09817 and 0.117 | Cathepsin L, sequence 2 expression [1, 2]: 3.293 and 1.752 | Dynamin-1 (D100) expression [1, 2]: 0.7964 and 0.6968 | Epidermal growth factor expression [1, 2]: 0.7851 and 0.8391 | Equilbrative nitrobenzylthioinosine-sensitive nucleoside transporter expression [1, 2]: 0.434 and 0.4974 | Fas antigen expression [1, 2]: 1.655 and 1.544 | Gadd45 expression [1, 2]: 1.068 and 0.9225 | Gadd153 expression [1, 2]: 2.348 and 2.179 | Gamma-actin, cytoplasmic expression [1, 2]: 2.831 and 2.8 | Glucose-regulated protein 78 expression [1, 2]: 1.943 | Hepatic lipase expression [1, 2]: 0.425 and 0.4085 | ID-1 expression [1, 2]: 1.831 and 1.476 | Insulin-like growth factor I expression [1, 2]: 0.632 and 0.7238 | Insulin-like growth factor binding protein 1 expression [1, 2]: 1.891 | Insulin-like growth factor binding protein 3 expression [1, 2]: 0.6015 and 0.8706 | Integrin beta1 expression [1, 2]: 1.973 and 1.549 | L-gulono-gamma-lactone oxidase expression [1, 2]: 0.1815 and 0.3251 | Matrin F/G expression [1, 2]: 0.6684 and 0.8266 | Monocyte chemotactic protein receptor (CCR2) expression [1, 2]: 1.356 | Organic anion transporter 3 expression [1, 2]: 0.6196 and 0.8226 | Organic cation transporter 3 expression [1, 2]: 3.288 and 2.799 | Ornithine decarboxylase expression [1, 2]: 1.809 and 2.529 | PAR interacting protein expression [1, 2]: 2.494 and 1.775 | Phase-1 RCT 252 expression [1, 2]: 2.109 | Phase-1 RCT-15 expression [1, 2]: 2.098 | Phase-1 RCT-36 expression [1, 2]: 0.9535 | Phase-1 RCT-38 expression [1, 2]: 0.8074 and 1.436 | Phase-1 RCT-40 expression [1, 2]: 0.5868 and 0.6253 | Phase-1 RCT-48 expression [1, 2]: 0.8259 | Phase-1 RCT-50 expression [1, 2]: 3.394 and 1.867 | Phase-1 RCT-78 expression [1, 2]: 0.6678 and 0.6463 | Phase-1 RCT-83 expression [1, 2]: 0.7709 and 0.5883 | Phase-1 RCT-88 expression [1, 2]: 0.5622 and 0.699 | Phase-1 RCT-89 expression [1, 2]: 0.3912 and 0.666 | Phase-1 RCT-92 expression [1, 2]: 0.5483 and 0.6236 | Phase-1 RCT-102 expression [1, 2]: 0.1629 and 0.3219 | Phase-1 RCT-117 expression [1, 2]: 0.5435 and 0.8114 | Phase-1 RCT-128 expression [1, 2]: 0.7358 and 0.5601 | Phase-1 RCT-137 expression [1, 2]: 0.897 | Phase-1 RCT-144 expression [1, 2]: 1.698 and 1.552 | Phase-1 RCT-145 expression [1, 2]: 1.962 and 1.531 | Phase-1 RCT-152 expression [1, 2]: 3.068 and 2.149 | Phase-1 RCT-179 expression [1, 2]: 1.874 and 1.726 | Phase-1 RCT-180 expression [1, 2]: 1.992 and 1.731 | Phase-1 RCT-182 expression [1, 2]: 0.648 and 0.4739 | Phase-1 RCT-189 expression [1, 2]: 0.7556 and 0.7413 | Phase-1 RCT-207 expression [1, 2]: 3.54 and 2.206 | Phase-1 RCT-213 expression [1, 2]: 2.298 and 1.558 | Phase-1 RCT-241 expression [1, 2]: 2.805 and 1.626 | Phase-1 RCT-256 expression [1, 2]: 0.7478 | Phase-1 RCT-264 expression [1, 2]: 0.3258 and 0.288 | Phase-1 RCT-270 expression [1, 2]: 0.3824 and 0.3779 | Phase-1 RCT-271 expression [1, 2]: 0.6863 and 0.7351 | Phase-1 RCT-288 expression [1, 2]: 0.7066 and 0.6813 | Phase-1 RCT-291 expression [1, 2]: 0.9117 | Phase-1 RCT-295 expression [1, 2]: 1.809 and 1.772 | Phase-1 RCT-296 expression [1, 2]: 0.1325 and 0.1028 | Ribosomal protein L13A expression [1, 2]: 3.222 and 2.597 | Ribosomal protein S17 expression [1, 2]: 3.701 and 3.311 | Sodium/bile acid cotransporter expression [1, 2]: 0.2803 and 0.3733 | Transthyretin expression [1, 2]: 0.3341 and 0.2879 | Ubiquitin conjugating enzyme (RAD 6 homologue) expression [1, 2]: 1.788 and 1.624 | c-jun expression [1, 2]: 1.591 and 1.111 | c-myc expression [1, 2]: 1.683 and 1.143 | Paraoxonase 1 expression ([1]; rat, in vivo): 0.4607 and 0.4822 | Liver Toxicity Necrosis Classification (Sprague Dawley rats; 72 h, dose 0.5): no | Liver Toxicity Necrosis Classification (Sprague Dawley rats; 72 h; dose 2; animals 2257-2259): no | Liver Toxicity Necrosis Classification (Sprague Dawley rats; compound-dose group CHEX 0.5; at 72 h): no | Liver Toxicity Necrosis Classification (Sprague Dawley rats; compound-dose group CHEX 2; at 72 h): no | Liver Toxicity Necrosis Classification (Sprague Dawley rats; compound-dose group at 72 h, dose 0.5): no | Liver Toxicity Necrosis Classification (Sprague Dawley rats; compound-dose group at 72 h, dose 2): no | Liver Toxicity Necrosis Classification (Sprague Dawley rats; compound-dose group at 72 h; dose 2): no | Liver Necrosis (Sprague Dawley rats; rat, intraperitoneal, dose 0.5 mg/kg, 72 hours after treatment): no | Score (histopathology liver necrosis severity score) (Sprague Dawley rats; rat, intraperitoneal, dose 0.5 mg/kg, 72 hours; 1 = not remarkable, 2 and higher increasing severity): 1 | Liver Necrosis (Sprague Dawley rats; rat, intraperitoneal, dose 2 mg/kg, 72 hours after treatment): no | Score (histopathology liver necrosis severity score) (Sprague Dawley rats; rat, intraperitoneal, dose 2 mg/kg, 72 hours; 1 = not remarkable, 2 and higher increasing severity): 1
